Source: patent US20110207807A1, “NEW USE FOR HOMOISOFLAVONE OR A SALT THEREOF” (Catholic University Industry Academy Cooperation Foundation, priority 2008, published 2011)

How the values were obtained:
[1] = tested on: hairless mouse (SKH-1); experiment: Ear edema induced by phorbol 12-myristate 13-acetate in animal model; assay type: in vivo
Experimental: In order to confirm the in vitro test result on the human keratinocytes HaCaT cells in an animal model, experiment was performed as follows using hairless mouse (SKH-1). Test groups are as follows: non-treated group—treated not with phorbol 12-myristate 13-acetate but only with acetone (TPA); test group A—treated with 1 μg/10 μL homoisoflavanone or 50 μg/10 μL dexamethasone; control group (TPA)-treated with 100 μM phorbol 12-myristate 13-acetate; test group B—treated with 1 μg/10 μL homoisoflavanone or 50 μg/10 μL dexamethasone as well as 100 μM phorbol 12-myristate 13-acetate.
One hour before treating with phorbol 12-myristate 13-acetate, 1 μg/10 μL homoisoflavanone or 50 μg/10 μL dexamethasone was applied on the front and rear parts of the ear, 5 μL each. Then, 6 hour after the application of phorbol 12-myristate 13-acetate, ear thickness and weight were measured.
In order to investigate overall change in the skin tissue, hematoxylin-eosin staining was carried out.

[2] = tested on: IL-6; experiment: IL-6 mRNA expression induced by PMA and A23187 in HMC-1 (real-time PCR); assay type: cell-based, human; details: HMC-1, 2 μg/mL, 50 nM PMA + 1 μM A23187, 5 hours (FIG. 6c)
Experimental: In order to investigate the effect of homoisoflavanone on the release of pro-inflammatory cytokines induced by phorbol 12-myristate 13-acetate and A23187 in HMC-1, 5×10^5 HMC-1 cells were inoculated on a 60-mm culture dish and cultured in IMDM containing 10% FBS for 48 hours. Then, after treating with homoisoflavanone at 2 μg/mL, the cells were treated with 50 nM phorbol 12-myristate 13-acetate and 1 μM A23187 to induce release of pro-inflammatory cytokines, and then further cultured for 5 hours.
After extracting RNA from the cells of each test group using TRIzol, cDNA was prepared by carrying out PCR using the RNA as a template. Then, the mRNA expression of IL-6 and IL-8 was measured through real-time PCR using the cDNA as template and using commercially available IL-6 and IL-8 primers. The expression level of the pro-inflammatory cytokines was compared relative to the non-treated group.

[3] = tested on: cPLA2; experiment: cPLA2 phosphorylation induced by PMA and A23187 in HMC-1 (Western blot); assay type: cell-based, human; details: HMC-1, 2 μg/mL, 50 nM PMA + 1 μM A23187, 4 hours (FIG. 7c)
Experimental: 1×10^6 HMC-1 cells were inoculated on a 100-mm culture dish and cultured in IMDM containing 10% FBS for 48 hours. […] Then, Western blotting was carried out in the same manner as in Example 2-1 except for using rabbit anti-p-cytosolic phospholipase A2 (cPLA2) antibody, rabbit anti-cPLA2 antibody, rabbit anti-ERK antibody and rabbit anti-p-ERK antibody (Cell Signaling) and using anti-rabbit IgG-HRP conjugation antibody (Zymed) as secondary antibody.

[4] = tested on: HMC-1 cells; experiment: Degranulation induced by PMA and A23187 in HMC-1 (transmission electron microscopy); assay type: cell-based, human; details: HMC-1, 2 μg/mL, 50 nM PMA + 1 μM A23187, 6 hours (FIG. 8a)
Experimental: In order to investigate the effect of homoisoflavanone on COX-2 expression induced by phorbol 12-myristate 13-acetate and A23187 in HMC-1, 1×10^5 HMC-1 cells were inoculated on a 6-well plate and cultured in IMDM containing 10% FBS for 48 hours. Then, after treating with homoisoflavanone at 2 μg/mL for 1 hour, the cells were treated with 50 nM phorbol 12-myristate 13-acetate and 1 μM A23187 to induce COX-2 expression, and then further cultured for 6 hours. Then, the cells were fixed with 2.5% glutaraldehyde and frozen with liquid nitrogen. The cells were detached from the plate by applying heat, sliced into […], attached on grids, and observed with a transmission electron microscope (TEM).

[5] = topical 1 μg/10 μL homoisoflavanone or 50 μg/10 μL dexamethasone 1 h before 100 μM TPA, 6 hour after TPA, vs TPA control (FIG. 4a, 4b)

In the case of COc1ccc(CC2COc3cc(O)cc(O)c3C2=O)cc1O (stereo not drawn) [homoisoflavanone], the “hyperplasia in the epidermis (hematoxylin-eosin staining)” value ([1]; 1 μg/10 μL homoisoflavanone or 50 μg/10 μL dexamethasone plus TPA (FIG. 4c)) is reported as “significantly reduced”, the ear thickness [1, 5] is reported as “decrease” and the ear weight [1, 5] is reported as “decrease”. For the same molecule, the “inhibition of release (mRNA expression) of IL-6” value [2] was 50%, the cPLA2 phosphorylation [3] was “inhibited” and the “release of intracellular substances (degranulation, TEM)” value [4] was “inhibited”.
